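Five concentrations, 48 hours, 96-well plates. TGI marks complete inhibition of growth.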
Columns and labels:
Experiment in all cases: inhibition of tumour cell growth, NCI panel, 48 h
786-0 renal = system: 786-0 renal
A498 renal = system: A498 renal
A549 NSCLC = system: A549 NSCLC
ACHN renal = system: ACHN renal
BT-549 breast = system: BT-549 breast
CAKI-1 renal = system: CAKI-1 renal
CCRF-CEM leukemia = system: CCRF-CEM leukemia
COLO 205 colon = system: COLO 205 colon
DU-145 prostate = system: DU-145 prostate
EKVX NSCLC = system: EKVX NSCLC
HCC-2998 colon = system: HCC-2998 colon
HCT-116 colon = system: HCT-116 colon
HCT-15 colon = system: HCT-15 colon
HL-60(TB) leukemia = system: HL-60(TB) leukemia
HOP-62 NSCLC = system: HOP-62 NSCLC
HOP-92 NSCLC = system: HOP-92 NSCLC
HS 578T breast = system: HS 578T breast
HT29 colon = system: HT29 colon
K-562 leukemia = system: K-562 leukemia
KM12 colon = system: KM12 colon
LOX IMVI melanoma = system: LOX IMVI melanoma
M14 melanoma = system: M14 melanoma
MALME-3M melanoma = system: MALME-3M melanoma
MCF7 breast = system: MCF7 breast
MDA-MB-231 breast = system: MDA-MB-231 breast
MDA-MB-435 = system: MDA-MB-435
MDA-N = system: MDA-N
MOLT-4 leukemia = system: MOLT-4 leukemia
NCI-H226 lung = system: NCI-H226 lung
NCI-H23 lung = system: NCI-H23 lung
NCI-H460 lung = system: NCI-H460 lung
NCI-H522 lung = system: NCI-H522 lung
NCI/ADR-RES ovarian = system: NCI/ADR-RES ovarian
OVCAR-3 ovarian = system: OVCAR-3 ovarian
OVCAR-4 ovarian = system: OVCAR-4 ovarian
OVCAR-5 ovarian = system: OVCAR-5 ovarian
OVCAR-8 ovarian = system: OVCAR-8 ovarian
PC-3 prostate = system: PC-3 prostate
RPMI-8226 leukemia = system: RPMI-8226 leukemia
SF-268 CNS = system: SF-268 CNS
SF-295 CNS = system: SF-295 CNS
SF-539 CNS = system: SF-539 CNS
SK-MEL-2 melanoma = system: SK-MEL-2 melanoma
SK-MEL-28 melanoma = system: SK-MEL-28 melanoma
SK-MEL-5 melanoma = system: SK-MEL-5 melanoma
SK-OV-3 ovarian = system: SK-OV-3 ovarian
SN12C renal = system: SN12C renal
SNB-19 CNS = system: SNB-19 CNS
SNB-75 CNS = system: SNB-75 CNS
SR leukemia = system: SR leukemia
SW-620 colon = system: SW-620 colon
T-47D breast = system: T-47D breast
TK-10 renal = system: TK-10 renal
U251 CNS = system: U251 CNS
UACC-257 melanoma = system: UACC-257 melanoma
UACC-62 melanoma = system: UACC-62 melanoma
UO-31 renal = system: UO-31 renal

O=C(c1c(Cl)cc(Cl)cc1Cl)N(Cc1cccnc1)C(=S)N(Cc1cccnc1)C(=O)c1c(Cl)cc(Cl)cc1Cl
TGI (786-0 renal): 10.5 µM | TGI (A498 renal): 51.6 µM | TGI (A549 NSCLC): > 100 µM | TGI (ACHN renal): 41.1 µM | TGI (BT-549 breast): 9.59 µM | TGI (CAKI-1 renal): 19.8 µM | TGI (CCRF-CEM leukemia): > 100 µM | TGI (COLO 205 colon): 21.9 µM | TGI (DU-145 prostate): 17.2 µM | TGI (EKVX NSCLC): 35.3 µM | TGI (HCC-2998 colon): 7.4 µM | TGI (HCT-116 colon): 11.1 µM | TGI (HCT-15 colon): 11.2 µM | TGI (HL-60(TB) leukemia): 64.7 µM | TGI (HOP-62 NSCLC): 20.3 µM | TGI (HOP-92 NSCLC): 10.6 µM | TGI (HS 578T breast): 58.4 µM | TGI (HT29 colon): 13.2 µM | TGI (K-562 leukemia): > 100 µM | TGI (KM12 colon): 10.3 µM | TGI (LOX IMVI melanoma): 15.1 µM | TGI (M14 melanoma): 26.5 µM | TGI (MALME-3M melanoma): 42.4 µM | TGI (MCF7 breast): 15.8 µM | TGI (MDA-MB-231 breast): 40.9 µM | TGI (MDA-MB-435): 26.5 µM | TGI (MDA-N): 5.2 µM | TGI (MOLT-4 leukemia): > 100 µM | TGI (NCI-H226 lung): 45.1 µM | TGI (NCI-H23 lung): 23.5 µM | TGI (NCI-H460 lung): 32.9 µM | TGI (NCI-H522 lung): 25.6 µM | TGI (NCI/ADR-RES ovarian): 34.3 µM | TGI (OVCAR-3 ovarian): 13.9 µM | TGI (OVCAR-4 ovarian): 5.25 µM | TGI (OVCAR-5 ovarian): 40.8 µM | TGI (OVCAR-8 ovarian): 16.5 µM | TGI (PC-3 prostate): 24 µM | TGI (RPMI-8226 leukemia): > 100 µM | TGI (SF-268 CNS): 27.8 µM | TGI (SF-295 CNS): 43.2 µM | TGI (SF-539 CNS): 28.4 µM | TGI (SK-MEL-2 melanoma): 36 µM | TGI (SK-MEL-28 melanoma): 47.9 µM | TGI (SK-MEL-5 melanoma): 26.4 µM | TGI (SK-OV-3 ovarian): 77 µM | TGI (SN12C renal): 20.5 µM | TGI (SNB-19 CNS): 52.4 µM | TGI (SNB-75 CNS): 14.2 µM | TGI (SR leukemia): > 100 µM | TGI (SW-620 colon): > 100 µM | TGI (T-47D breast): 41.4 µM | TGI (TK-10 renal): 11.1 µM | TGI (U251 CNS): 27.3 µM | TGI (UACC-257 melanoma): 22.8 µM | TGI (UACC-62 melanoma): 34.2 µM | TGI (UO-31 renal): 19.4 µM
